{"source": "patent US10173969B2", "about": "“Production of aniline via anthranilate” (Covestro Deutschland AG, priority 2014, dated 2019)", "key": {"[1]": {"experiment": "Kinetics of thermal decarboxylation in aqueous buffer solution without catalyst", "assay_type": "physicochemical", "details": "for k (rate coefficient of decarboxylation) / n (order of reaction of decarboxylation): buffer solution, no catalyst", "text": "(§1) In this experiment, the kinetics of the thermal decarboxylation of step b) of the method according to the invention was studied. […] In this case it was possible to decarboxylate anthranilate ion to aniline (ANL). AA, or o-aminobenzoate, respectively was either provided biologically by a recombinant microbial host as described in Example 1, or it was provided chemically, e.g. it was commercially obtained, e.g. from Sigma Aldrich, catalog no. A89855.\n(§2) A buffer solution containing (NH4)2SO4 (20 g/L), Na2HPO4 (1 g/L) and KH2PO4 (1 g/L) in distilled water was prepared. Then AA 10 wt % was suspended in this solution. NH4OH solution (28-30% NH3) was added dropwise into this suspension until a clear yellow solution was formed. The pH of this ammonium anthranilate (NH4AA) solution was around 7. The ammonium anthranilate (3 wt %) solution was also prepared using this method.\n80 mL of each of the above solutions was transferred into an autoclave 160 mL and heated to 160° C. or 180° C. and samples were taken at different time intervals to analyse the rate of aniline (ANL) formation.\nDecarboxylation of AA 0.5 wt % and NH4AA 3 wt % in aqueous buffer solution was performed at 160° C. without using any catalyst. […] The kinetic model was established using the general reaction rate formula as below and considering the experimental data to calculate the optimized k and n parameters which are the rate coefficient and the order of reaction, respectively.\nThe kinetics of NH4AA 10 wt % decarboxylation at 160° C. and 180° C. was also studied using experimental data and a simulating model."}, "[2]": {"experiment": "Solubility of ammonium anthranilate in buffer solution", "assay_type": "physicochemical", "details": "AA buffer solution with NH4OH added", "text": "as §1, §2"}, "[3]": {"details": "reaction temperature 160 °C, listed as NH4AA 10% in buffer solution"}}, "data": [{"smiles": "Nc1ccccc1C(=O)O", "note": "[AA 0.5% in buffer solution, anthranilic acid]", "values": [{"measurement": "rate coefficient (k) relative to that of NH4AA 3 wt %", "setting": "[1]; 160 °C, decarboxylation in water", "result": 6.8, "unit": "times"}, {"measurement": "k (rate coefficient of decarboxylation)", "setting": "[1]; reaction temperature 160 °C", "result": 0.0519, "unit": "h⁻¹"}, {"measurement": "n (order of reaction of decarboxylation)", "setting": "[1]; reaction temperature 160 °C", "result": 0.9207}]}, {"smiles": "N.Nc1ccccc1C(=O)O", "note": "[NH4AA 3% in buffer solution, ammonium anthranilate]", "values": [{"measurement": "rate coefficient at 180 °C relative to that at 160 °C", "setting": "[1]; NH4AA 10 wt %", "result": 36, "unit": "times"}, {"measurement": "k (rate coefficient of decarboxylation)", "setting": "[1]; reaction temperature 160 °C", "result": 0.00755, "unit": "h⁻¹"}, {"measurement": "n (order of reaction of decarboxylation)", "setting": "[1]; reaction temperature 160 °C", "result": 0.8706}, {"measurement": "k (rate coefficient of decarboxylation)", "setting": "[1]; [3]", "result": 0.000713, "unit": "h⁻¹"}, {"measurement": "n (order of reaction of decarboxylation)", "setting": "[1]; [3]", "result": 1.2758}, {"measurement": "k (rate coefficient of decarboxylation)", "setting": "[1]; reaction temperature 180 °C", "result": 0.026, "unit": "h⁻¹"}, {"measurement": "n (order of reaction of decarboxylation)", "setting": "[1]; reaction temperature 180 °C", "result": 0.9793}]}, {"smiles": "N.Nc1ccccc1C(=O)O", "note": "[ammonium anthranilate]", "values": [{"measurement": "solubility", "setting": "[2]", "result": "up to 10%"}]}]}
